The results in this text go back to patent publication US12331096B2, “Binding domain mapping and compounds, compositions, complexes, methods, and kits related thereto” (GEORGE MASON RESEARCH FOUNDATION, INC., priority 2019, dated 2025).

Values joined by “and” are separate entries in the source; they are usually repeats but may differ in a detail not shown here. Identical values can stand only once. “Also recorded” adds a separate entry of the source. Like-named read-outs stand apart in the source and are kept apart here. Where a SMILES comes first, the peptide text is derived from it. Bridges are numbered along the chain shown (N, C = ends).

For series [1], the target named is T1, Thyroglobulin (Bos taurus, UniProt P01267).
T1 construct: purchased Sigma Aldrich 9010-34-8
As to the kind of experiment: Specific binding of dye to thyroglobulin (gel filtration, UV-Vis). The conditions noted are these: for Specific binding to thyroglobulin at equilibrium: Vmax of Michaelis-Menten fit, no CuSO4. Here is the method:
(§1) To determine specific binding of each candidate dye, thyroglobulin was primarily used as a model protein, because its large surface area facilitated more molecules of dye binding per protein, and thus higher signal to noise ratios versus smaller proteins. Candidate dyes were examined on a UV-2501PC UV-Vis spectrometer to determine Amax values. Standard curves were prepared for quantification of molecules of dye; dyes were eliminated from consideration if sensitivity of detection was not greater than 10 μM in solution. Thyroglobulin (1-5 μM) was mixed with 100-fold molar excess of candidate dye dissolved in PBS and allowed to associate between 15 seconds to 2 hours at room temperature. After association, 50 μL of the dye-protein mixtures were passed through a mini Quick Spin Oligo Column (Sephadex G-25 resin, Roche) and centrifugated at 1000× g for 1 min to separate unbound dye from the protein-dye complex. The collected flow-through was examined with UV-Vis spectroscopy, and quantity of dye in the flow-through was calculated using the previously developed standard curve for the dye. Specific Binding was defined as [Paint Molecules Bound]/[Protein]. A plot of specific binding versus time was fit with the Michaelis-Menton equation in GraphPad Prism 6 as a model to determine association kinetics and maximum dye binding, where Vmax represents the maximum amount of dye molecules that bind to the protein at equilibrium. All curves are fit to data from two independent experiments. Specific binding of dye candidates to lysozyme was conducted similarly, with the change that lysozyme (2-10 μM) was mixed with 50-fold molar excess of dye candidate dissolved in PBS and allowed to associate for the indicated time points.
In general terms: SEC sorts molecules by how far they enter the pores of the column.

Series [2] has as its target T2, Lysozyme (Gallus gallus, UniProt P00698).
T2 construct: purchased Sigma Aldrich 12650-88-3
The experiment in a line: Specific binding of dye to lysozyme. Here is the method: as §1

Series [3] is described as follows: Solubility of azo coupling products synthesized in PBS. The class given is physicochemical. Conditions: synthesized at room temperature in PBS, pH 7.4. Here is the method:
Dyes stocks were prepared to 1 mg/mL final concentrations. Synthesis was conducted as follows: Fast Dyes were mixed in 1× Dubelcco's PBS with an excess of coupling agent (3-fold molar concentration of coupling agent to fast dye) and vortexed. Reactions were conducted at room temperature and proceeded in the first 5 minutes of mixing with evident color change. Dye stocks were allowed to incubate at room temperature for one week prior to use. Dyes were used without further purification and were diluted prior to use in protein painting. Dye reagents were vortexed before each use, and stable for >6 months at room temperature. Reactions were monitored by reverse phase C18 TLC (mobile phase of 60% methanol, 40% water) to determine number of product bands. […] The two major product bands were separated via reverse-phase flash column chromatography conducted essentially as described previously using a 20 mm column, stationary phase of COSMOSIL C18-OPN reverse phase resin (Nacalai USA, Catalog number 37842-66), and mobile phase of 60% methanol or 30% acetonitrile. Fractions containing individual bands were identified via reverse-phase TLC and were pooled and dried. Pure samples by TLC were analyzed by NMR to confirm structure of each major product.
Two different fast dyes were used to synthesize new dye candidates. Fast Blue B was chosen to synthesize new diazo dyes, as it is structurally similar to the core of TB, while Fast Red TR was chosen to synthesize new halogenated small dyes. Four diverse coupling agents, 4-Amino-1-naphthalenesulfonic Acid or naphthionic acid, 4-Amino-5-hydroxy-2,7-naphthalenedisulfonic acid or H-acid, 7-Amino-1,3-naphthalenedisulfonic acid or Amino G Acid, and 2-napthol were chosen to evaluate the role of sulfonates on specific binding. […] The remaining 5 candidate dyes, Fast Blue B+Naphthionic Acid (FBBNA), Fast Blue B+H-acid (FBBHA), Fast Red TR+Naphthionic Acid (FRNA), Fast Red TR+H-acid (FRHA), and Fast Red TR+Amino G Acid (FRAGA), were all evaluated for their specific binding with respect to thyroglobulin (see Table 3).

A short description of series [4]: Peptide solubility to 1 mM stock. Conditions: solvent additive for 1 mM stock.
Series [5] deals with bovine serum albumin (Bos taurus, UniProt P02769). The experiment in a line: Circular dichroism spectroscopy of BSA with dye, urea denaturation. Here is the method:
Circular dichroism spectroscopy was conducted using bovine serum albumin on a Jasco J-1500 CD spectrometer from 190-350 nm using a 1 mm cuvette. BSA stock solutions were prepared to 2 mg/mL from lyophilized protein in sterile-filtered 10 mM phosphate buffer, pH 7.0 and centrifuged at 16,000×g to remove particulates. Concentration was determined via A280 using an extinction coefficient of 43,824 M^−1 cm^−1 for BSA. Stocks were stored at −80° C. and diluted to the appropriate concentration in sterile-filtered MilliQ water for each experiment. Final concentration of BSA in each sample was 2 μM (0.12 mg/mL). Samples were incubated for 10 minutes with dye at a molar ratio equal to the specific binding of the molecule to the protein (i.e. 18 μM of FBBNA for 1 μM of BSA). Controls were incubated with equivolume amounts of MilliQ water in place of dye. […] Helical content of BSA spectra was determined using the online server DICHROWEB (Whitmore, L., and Wallace, B. A., “Protein secondary structure analyses from circular dichroism spectroscopy: methods and reference databases.” Biopolymers. 89, 392-400, 2008; Whitmore, L., and Wallace, B. A., “DICHROWEB, an online server for protein secondary structure analyses from circular dichroism spectroscopic data.” Nucleic Acids Res. 32, W668-673, 2004) to confirm native structure.

T2 sequence (P00698 19-147): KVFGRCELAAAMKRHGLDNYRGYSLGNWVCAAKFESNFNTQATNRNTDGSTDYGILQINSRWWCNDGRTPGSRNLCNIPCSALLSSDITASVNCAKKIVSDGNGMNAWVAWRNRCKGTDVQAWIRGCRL
bovine serum albumin, sequence (P02769 25-607): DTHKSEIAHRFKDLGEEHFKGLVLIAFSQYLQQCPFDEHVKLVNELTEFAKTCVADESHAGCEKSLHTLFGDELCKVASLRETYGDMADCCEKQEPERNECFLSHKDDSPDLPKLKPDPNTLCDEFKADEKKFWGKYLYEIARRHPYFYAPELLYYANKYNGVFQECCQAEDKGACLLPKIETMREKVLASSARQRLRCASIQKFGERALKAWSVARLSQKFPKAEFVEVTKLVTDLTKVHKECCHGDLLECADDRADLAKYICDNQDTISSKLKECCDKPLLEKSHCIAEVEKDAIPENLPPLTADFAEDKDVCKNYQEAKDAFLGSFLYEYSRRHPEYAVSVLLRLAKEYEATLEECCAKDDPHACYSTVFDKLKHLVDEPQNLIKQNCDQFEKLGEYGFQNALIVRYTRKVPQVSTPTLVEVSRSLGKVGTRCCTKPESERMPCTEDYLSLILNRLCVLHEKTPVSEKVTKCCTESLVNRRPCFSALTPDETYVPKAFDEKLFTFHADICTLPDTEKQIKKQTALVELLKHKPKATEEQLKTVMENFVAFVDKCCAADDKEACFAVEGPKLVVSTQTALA
T1 sequence (P01267 20-2769): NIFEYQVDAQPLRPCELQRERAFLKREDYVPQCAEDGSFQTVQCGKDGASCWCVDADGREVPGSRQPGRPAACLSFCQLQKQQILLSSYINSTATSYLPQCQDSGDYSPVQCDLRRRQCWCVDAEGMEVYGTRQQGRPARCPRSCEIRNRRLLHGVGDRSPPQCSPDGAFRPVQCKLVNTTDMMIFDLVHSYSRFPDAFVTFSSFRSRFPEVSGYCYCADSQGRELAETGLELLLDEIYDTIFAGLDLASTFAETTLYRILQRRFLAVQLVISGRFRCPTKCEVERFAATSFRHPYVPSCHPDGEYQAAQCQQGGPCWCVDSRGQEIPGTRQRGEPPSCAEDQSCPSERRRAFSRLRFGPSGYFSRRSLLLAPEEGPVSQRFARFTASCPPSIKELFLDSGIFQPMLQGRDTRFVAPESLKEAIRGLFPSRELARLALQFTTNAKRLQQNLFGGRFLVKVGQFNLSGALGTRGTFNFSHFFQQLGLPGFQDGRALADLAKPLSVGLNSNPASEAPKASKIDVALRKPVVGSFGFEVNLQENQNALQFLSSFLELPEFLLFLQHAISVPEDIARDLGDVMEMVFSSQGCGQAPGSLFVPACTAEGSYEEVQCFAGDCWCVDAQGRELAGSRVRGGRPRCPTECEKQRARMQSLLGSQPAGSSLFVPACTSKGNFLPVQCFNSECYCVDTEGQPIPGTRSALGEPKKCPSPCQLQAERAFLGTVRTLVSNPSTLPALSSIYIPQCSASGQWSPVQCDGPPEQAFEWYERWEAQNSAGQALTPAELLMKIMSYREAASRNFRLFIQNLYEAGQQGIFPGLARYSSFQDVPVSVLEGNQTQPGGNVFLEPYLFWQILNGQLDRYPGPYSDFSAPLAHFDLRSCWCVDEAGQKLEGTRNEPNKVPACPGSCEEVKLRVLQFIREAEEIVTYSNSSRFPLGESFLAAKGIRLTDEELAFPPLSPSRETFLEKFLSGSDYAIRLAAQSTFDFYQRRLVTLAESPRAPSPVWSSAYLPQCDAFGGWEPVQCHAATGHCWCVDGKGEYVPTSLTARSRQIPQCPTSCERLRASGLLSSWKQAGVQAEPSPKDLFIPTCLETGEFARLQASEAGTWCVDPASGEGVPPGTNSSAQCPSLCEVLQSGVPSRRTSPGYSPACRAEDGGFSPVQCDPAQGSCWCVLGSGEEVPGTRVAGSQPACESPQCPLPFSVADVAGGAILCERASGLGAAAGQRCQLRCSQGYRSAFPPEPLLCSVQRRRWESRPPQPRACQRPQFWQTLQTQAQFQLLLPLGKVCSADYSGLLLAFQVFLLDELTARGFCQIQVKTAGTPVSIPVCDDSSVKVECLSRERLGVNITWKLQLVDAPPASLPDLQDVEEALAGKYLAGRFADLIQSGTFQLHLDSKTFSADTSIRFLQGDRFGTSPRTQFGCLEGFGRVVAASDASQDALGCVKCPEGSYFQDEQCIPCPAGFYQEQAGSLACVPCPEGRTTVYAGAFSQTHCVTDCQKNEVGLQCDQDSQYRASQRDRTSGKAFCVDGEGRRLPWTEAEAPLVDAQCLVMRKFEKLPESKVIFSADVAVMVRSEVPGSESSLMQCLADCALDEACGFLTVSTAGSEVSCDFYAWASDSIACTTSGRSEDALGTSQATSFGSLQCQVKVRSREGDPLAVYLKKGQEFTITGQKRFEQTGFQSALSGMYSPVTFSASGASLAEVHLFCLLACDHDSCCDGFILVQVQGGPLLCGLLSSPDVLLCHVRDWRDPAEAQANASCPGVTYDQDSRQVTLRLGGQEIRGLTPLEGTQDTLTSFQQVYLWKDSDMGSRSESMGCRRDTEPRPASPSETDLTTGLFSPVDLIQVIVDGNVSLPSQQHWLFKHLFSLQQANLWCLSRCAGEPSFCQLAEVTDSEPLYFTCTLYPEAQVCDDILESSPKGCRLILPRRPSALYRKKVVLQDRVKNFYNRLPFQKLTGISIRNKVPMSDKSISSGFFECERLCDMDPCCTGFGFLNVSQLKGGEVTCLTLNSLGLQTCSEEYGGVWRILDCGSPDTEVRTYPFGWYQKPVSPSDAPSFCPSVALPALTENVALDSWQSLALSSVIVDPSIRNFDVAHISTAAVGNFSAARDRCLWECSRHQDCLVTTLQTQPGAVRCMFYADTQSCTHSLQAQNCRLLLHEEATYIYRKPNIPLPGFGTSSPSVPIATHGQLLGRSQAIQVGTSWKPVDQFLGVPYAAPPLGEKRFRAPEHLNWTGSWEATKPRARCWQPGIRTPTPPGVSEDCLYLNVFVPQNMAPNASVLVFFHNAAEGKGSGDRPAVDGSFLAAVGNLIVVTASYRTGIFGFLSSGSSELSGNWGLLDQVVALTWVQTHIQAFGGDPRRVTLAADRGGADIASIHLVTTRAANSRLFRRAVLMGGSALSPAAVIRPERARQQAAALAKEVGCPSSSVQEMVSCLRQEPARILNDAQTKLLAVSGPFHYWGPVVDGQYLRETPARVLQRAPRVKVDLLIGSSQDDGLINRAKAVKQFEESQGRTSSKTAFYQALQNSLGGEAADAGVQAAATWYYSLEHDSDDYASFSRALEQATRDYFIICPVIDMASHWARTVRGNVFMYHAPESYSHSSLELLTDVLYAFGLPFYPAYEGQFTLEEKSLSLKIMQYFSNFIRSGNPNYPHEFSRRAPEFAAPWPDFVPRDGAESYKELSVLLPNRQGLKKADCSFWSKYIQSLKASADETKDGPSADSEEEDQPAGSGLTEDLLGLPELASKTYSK

As for `Cc1cc(-c2ccc(/N=N/c3c(S(=O)(=O)O)cc4cc(S(=O)(=O)O)cc(N)c4c3O)c(C)c2)ccc1/N=N/c1c(S(=O)(=O)O)cc2cc(S(=O)(=O)O)cc(N)c2c1O` [TB], the “Binding to thyroglobulin (in words)” value in series [1] is reported as “least specific binding”. In series [1], the “Specific binding to thyroglobulin at equilibrium” value came out at 3 molecules. Also, the “Binding to lysozyme (in words)” value in series [2] was “unable to bind”; in series [2] (listed as Trypan Blue), “not to lysozyme”.

As for `COc1cc(-c2ccc(N=Nc3c(O)ccc4ccccc34)c(OC)c2)ccc1N=Nc1c(O)ccc2ccccc12` [FBB2N], the “Solubility of dye product” value in series [3] was “FBB2N: Dark Blue Pigment Insoluble”.

As for `CC[C@H](C)[C@H](NC(=O)[C@H](CCSC)NC(=O)[C@H](CS)NC(=O)[C@H](CCCNC(=N)N)NC(=O)[C@@H](N)Cc1ccc(O)cc1)C(=O)N[C@@H](CO)C(=O)N[C@@H](Cc1ccc(O)cc1)C(=O)NCC(=O)NCC(=O)N[C@@H](C)C(=O)N[C@@H](CC(=O)O)C(=O)N[C@@H](Cc1ccc(O)cc1)C(=O)N[C@@H](CCCCN)C(=O)N[C@@H](CCCNC(=N)N)C(=O)N[C@H](C(=O)N[C@H](C(=O)N[C@H](C(=O)O)C(C)C)[C@@H](C)O)[C@@H](C)CC` [Peptide 1], the “Solubility (to 1 mM)” value in series [4] was 60% CH3COOH, and 14% CH3CN.

On to `Cc1cc(Cl)ccc1N=Nc1c(O)ccc2ccccc12` [FR2N], for which the “Solubility of dye product” value in series [3] is given as “FR2N: Bright Orange Pigment Insoluble”.

Take `Cc1cc(Cl)ccc1N=Nc1cc(S(=O)(=O)O)c2ccccc2c1N` [FRNA]: in series [1], the “Binding to thyroglobulin (in words)” value is “None of the Fast Red TR-based dyes including FRNA, FRHA, and FRAGA showed any significant binding”. For the same compound, in series [1] (candidate dyes, Tables 3 and 4), the “Specific binding to thyroglobulin” value was “No binding”. Besides, the “Solubility of dye product” value in series [3] is reported as “Soluble”.

“sodium 4-(4-(benzyl-et-amino)-ph-azo)-2,5-di-cl-benzenesulphonate [AO50]”: the “Specific binding to thyroglobulin at equilibrium” value in series [1] is on record as 15 molecules. Besides, the “Binding to lysozyme (in words)” value in series [2] is “able to bind”. Besides, the “Specific binding to lysozyme at equilibrium” value in series [2] (Vmax of Michaelis-Menten fit) is recorded as 1 molecule. In series [5] (10 min incubation with dye), the “Effect of dye on native secondary structure of BSA (CD)” value is listed as “does not change”. Also, in series [5] (urea 2M, 4M, 6M (FBBNA), 4M urea (AO50, combination)), the “Denaturation of BSA by urea in the presence of dye (CD)” value is on record as “attenuated; also recorded: partially stabilize”.

Consider `CC[C@H](C)[C@@H]1NC(=O)[C@H](CCSC)NC(=O)[C@H](C)NC(=O)[C@H](CCCNC(=N)N)NC(=O)[C@H](Cc2ccc(O)cc2)NC(=O)[C@@H](N)CSSC[C@@H](C(=O)O)NC(=O)[C@H]([C@@H](C)O)NC(=O)[C@H]([C@@H](C)CC)NC(=O)[C@H](CCCNC(=N)N)NC(=O)[C@H](CCCCN)NC(=O)[C@H](Cc2ccc(O)cc2)NC(=O)[C@H](CC(=O)O)NC(=O)[C@H](C)NC(=O)CNC(=O)CNC(=O)[C@H](Cc2ccc(O)cc2)NC(=O)[C@H](CO)NC1=O` [Peptide 2] (H-CYRAMISYGGADYKRITC-OH; disulfide 1-18), for which, in series [4], the “Solubility (to 1 mM)” value turned out to be 40% CH3COOH.
